The structures appear in SMILES notation.

Data set [1] can be described thus: in vitro. The settings on record: rat, liver microsomes.
Data set [2] can be described thus: in vitro. The following applies: human, liver microsomes.
Data set [3] in a line: in vivo. The settings on record: Sprague-Dawley, rat, iv, 1 mg/kg.
Data set [4] is described as follows: in vivo. The following applies: Sprague-Dawley, rat, po, 2 mg/kg.
Data set [5] can be described thus: in vivo. The settings on record: Sprague-Dawley, rat, iv, 1 mg/kg. The source holds these as a separate data set.
Data set [6] is described as follows: in vivo. The settings on record: Sprague-Dawley, rat, plasma, po, 2 mg/kg.
Data set [7] can be described thus: in vivo. The following applies: Sprague-Dawley, rat, iv, 1 mg/kg. The source holds these as a separate data set.
For data set [8], the system named is Hepatocyte. The following applies: rat, hepatocytes, 4 h, 3 µM.
The test system of data set [9] is Hepatocyte. The following applies: rat, hepatocytes, 4 h, 3 µM. The source holds these as a separate data set.

In [1], `Cc1nc(N)nc(-c2cc(CN3CCN(S(C)(=O)=O)CC3)cnc2Nc2ccc(=O)[nH]c2)n1` returned a microsomal CLint at 0.5 h, 1 µM of less than 14 µL/min/mg.
For the compound `COc1cncc(Nc2ncc(CN3CCN(S(C)(=O)=O)CC3)cc2-c2nc(C)nc(N)n2)c1`, the microsomal CLint at 0.5 h, 1 µM in [2] turned out to be 14 µL/min/mg; in data set [1], 29 µL/min/mg.
For `COc1ncc(Nc2ncc(CN3CCN(S(C)(=O)=O)CC3)cc2-c2nc(C)nc(N)n2)cn1`, in that order: 14 µL/min/mg and 14 µL/min/mg.
For `Cc1nc(N)nc(-c2cc(CN3CCN(S(C)(=O)=O)CC3)cnc2Nc2cncc(F)c2)n1`, the microsomal CLint at 0.5 h, 1 µM in data set [2] is less than 14 µL/min/mg; in data set [1], 30 µL/min/mg.
On to `COc1ncc(Nc2ncc([C@H](C)N3CCN(S(C)(=O)=O)C[C@@H]3C)cc2-c2nc(C)nc(N)n2)cc1F`, for which the figures for the microsomal CLint at 0.5 h, 1 µM in data set [2] and in [1] were 80 µL/min/mg and 128 µL/min/mg, respectively.
For `COc1ncc(Nc2ncc([C@H](N3CCN(S(C)(=O)=O)CC3)C(F)(F)F)cc2-c2nc(C)nc(N)n2)cc1F`, in that order: 25 µL/min/mg and 22 µL/min/mg.
Turning to `Cc1nc(N)nc(-c2cc(CN3CCN(S(C)(=O)=O)CC3)cnc2Nc2ccc(C(F)(F)F)nc2)n1`, the microsomal CLint at 0.5 h, 1 µM is less than 14 µL/min/mg in data set [2] and 22 µL/min/mg in data set [1].
Taken in the same sequence, the figures for `COc1ncc(Nc2ncc([C@@H](C)N3CCN(S(C)(=O)=O)C[C@H]3C)cc2-c2nc(C)nc(N)n2)cc1F` were 64 µL/min/mg and 113 µL/min/mg.
Compound `COc1ncc(Nc2ncc(C(C)(C)N3CCN(S(C)(=O)=O)CC3)cc2-c2nc(C)nc(N)n2)cc1F` gave an MRT in data set [3] of 4.9 h. In data set [4], this compound showed a bioavailability of 24%. The compound further showed a clearance in data set [5] of 11.7 mL/min/kg. This compound came in with an AUC in data set [6] of 1.3 µM·h. Further, the microsomal CLint at 0.5 h, 1 µM in [2] worked out at 81 µL/min/mg; in data set [1] it was 58 µL/min/mg. In addition, the Vd in data set [7] was 3.5 L/kg.
As to `COc1ncc(Nc2ncc(CN3CCN(S(C)(=O)=O)C[C@@H]3C)cc2-c2nc(C)nc(N)n2)cc1F`, in [3], the MRT was 3.2 h. Also, the bioavailability in [4] came out at 60%. In data set [5], the clearance was 16.7 mL/min/kg. Also, the AUC in data set [6] came to 2.3 µM·h. Besides, the intrinsic clearance (microsomal CLint) at 0.5 h, 1 µM in data set [2] was determined as 41 µL/min/mg; in data set [1], 54 µL/min/mg. The compound further returned a Vd in [7] of 3.2 L/kg.
With `COc1ncc(Nc2ncc(CN3CCN(S(C)(=O)=O)CC3)cc2-c2nc(C)nc(N)n2)cc1F`, the Drug metabolism entry in [8] was “Active”; in data set [9], “Not Active”. The MRT in data set [3] was determined as 1.7 h. In addition, the bioavailability in data set [4] came to 45%. This compound had a clearance in data set [5] of 33.3 mL/min/kg. Further, the area under the curve (AUC) in data set [6] came out at 0.95 µM·h. Also, the intrinsic clearance (microsomal CLint) at 0.5 h, 1 µM in [2] was less than 14 µL/min/mg; in data set [1], 30 µL/min/mg. Also, the Vd in [7] is 3.3 L/kg.
Turning to `COc1ncc(Nc2ncc(CN3CCN(S(C)(=O)=O)C[C@H]3C)cc2-c2nc(C)nc(N)n2)cc1F`, the microsomal CLint at 0.5 h, 1 µM in data set [2] is 29 µL/min/mg; in [1], 120 µL/min/mg.
`Cc1nc(N)nc(-c2cc(CN3CCN(S(C)(=O)=O)CC3)cnc2Nc2ccc(Cl)nc2)n1`: the intrinsic clearance (microsomal CLint) at 0.5 h, 1 µM in [2] was less than 14 µL/min/mg; in [1] it was 24 µL/min/mg.
Taken in the same sequence, the figures for `COc1ncc(Nc2ncc([C@@H](N3CCN(S(C)(=O)=O)CC3)C(F)(F)F)cc2-c2nc(C)nc(N)n2)cc1F` were 23 µL/min/mg and 17 µL/min/mg.
Turning to `Cc1ccc(Nc2ncc(CN3CCN(S(C)(=O)=O)CC3)cc2-c2nc(C)nc(N)n2)cn1`, the microsomal CLint at 0.5 h, 1 µM in [2] is less than 14 µL/min/mg; in data set [1], 22 µL/min/mg.
As for `COc1ncc(Nc2ncc([C@@H](C)N3CCN(S(C)(=O)=O)C[C@@H]3C)cc2-c2nc(C)nc(N)n2)cc1F`, in data set [3], the MRT came to 3.1 h. For the same compound, the bioavailability in data set [4] stood at 49%. The same compound had a clearance in data set [5] of 21.7 mL/min/kg. In addition, the AUC in data set [6] was found to be 1.4 µM·h. Besides, the microsomal CLint at 0.5 h, 1 µM in data set [2] stood at 67 µL/min/mg; in data set [1], 69 µL/min/mg. The same compound had a Vd in data set [7] of 4 L/kg.
With `COc1ncc(Nc2ncc([C@H](C)N3CCN(S(C)(=O)=O)C[C@H]3C)cc2-c2nc(C)nc(N)n2)cc1F`, the microsomal CLint at 0.5 h, 1 µM was found to be 54 µL/min/mg in [2] and 174 µL/min/mg in data set [1].
